US20230227769A1, “Means and Methods to Improve Yeast Fermentation Efficiency” (VIB VZW, priority 2020, published 2023)

Tested on: 2G industrial yeast strains MD4 and T18
Test: Fermentations in lignocellulose hydrolysates spiked with a range of inhibitor concentrations
Type: cell-based, S. cerevisiae
Conditions: five lignocellulose hydrolysates spiked with a range of inhibitor concentrations; both strains MD4 and T18
Description: The medium was spiked with different industrially relevant concentrations of (FIG. 1A, FIG. 1E) HMF, (FIG. 1B, FIG. 1F) furfural, (FIG. 1C, FIG. 1G) formic acid and (FIG. 1D, FIG. 1H) acetic acid.
As a first step in developing a yeast strain that can cope with the presence of fermentation inhibitors, the level of all relevant inhibitory compounds was measured in five different lignocellulose hydrolysates: two bagasse hydrolysates, two corn cob hydrolysates and one spruce hydrolysate (for composition see Table 2). Fermentations with two 2G industrial yeast strains, MD4 and T18, were performed using these hydrolysates spiked with a range of inhibitor concentrations.
After preculture of the yeast strains for 48 h at 30° C. with shaking at 200 rpm in YPD2% (10 g/l yeast extract, 20 g/l bacteriological peptone, 2% D-glucose) up to stationary phase, small-scale (10 ml) semi-anaerobic fermentations with MD4 and T18 were performed at pH 5.2, 35° C., shaking at 350 rpm, and a yeast inoculum OD 5.0. Weight loss of the fermentation tubes, which is correlated with CO2 production during conversion of glucose and xylose into ethanol, was measured continuously, or sampling at different timepoints was performed to analyse sugar and inhibitor concentrations by HPLC.

O=Cc1ccc(CO)o1 [HMF, 5-(hydroxymethyl)furfural]
inhibitory effect on fermentation: major inhibitors

O=CO [formic acid]
inhibitory effect on fermentation: major inhibitors

CC(=O)CCC(=O)O [Levulinic acid]
inhibitory effect on fermentation: smaller inhibitory effect

COc1cc(C=O)ccc1O [vanillin]
inhibitory effect on fermentation: smaller inhibitory effect

O=Cc1ccco1 [furfural]
inhibitory effect on fermentation: major inhibitors

CC(=O)O [acetic acid]
inhibitory effect on fermentation: major inhibitors

O=Cc1ccc(O)cc1 [4-hydroxybenzaldehyde]
inhibitory effect on fermentation: smaller inhibitory effect

O=C(O)c1ccc(O)cc1 [4-hydroxybenzoic acid]
inhibitory effect on fermentation: smaller inhibitory effect
